From patent publication US5179089A, “Isoquinoline compounds, compositions and use” (Chinoin Gyogyszer es Vegyeszeti Termekek Gyara Rt., priority 1990, dated 1993)
Structures can show the parent of a compound that is named as a salt. Where two headings read alike, the source gives them in different places.

How the values were obtained:
[1] = system: histamine-induced constriction of isolated tracheal smooth muscle of guinea pig; experiment: Inhibition of the histamine-induced constriction of isolated tracheal smooth muscle of guinea pig; details: isolated guinea pig trachea; for IC50: Cavia porcellus, 0.25 h, read-out: Inhibition of the histamine-induced constriction of isolated tracheal smooth muscle of guinea pig pd'2 (converted)
Procedure: I Study on the Effects Against Spasmogenic Mediators [modified method of J. C. […] The investigation on isolated organs were carried out as follows. OHF Lt/R9 guinea pigs of both sexes weighing 300 to 400 g each were anaesthetized by pentobarbital. Their trachea was removed and sectioned in the opposite side to the site of smooth muscle in longitudinal direction. Subsequently, a strip-like preparation was obtained by […] cutting. […] A rest load of 0.5 g was used. Several washings were carried out during the incubation period of 30 minutes. The change in the tension of the tracheal smooth muscle was followed by using an isometric Grass FT-03 type tensiometer sensor device. A washing was made following the cumulative dose series of the given mediator (e.g. histamine). After reaching the base line, by 15 minutes after administration of the given concentration of the inhibitory (antiasthmatic) substance to be tested, the next cumulative dose series of the mediator was administered. In the case of an inhibitory action, the strength of effect, following the second dose series of the mediator, was […] in comparison to that of the first (control) series. For characterization of strength of the competitive antagonistic effect the pA2 value was determined according to the method of […] A pd'2 value was calculated [J. M. Van Rossum: Arch. Int.

[2] = system: carrageenin-induced rat paw edema; experiment: Carrageenin-induced rat paw edema test; assay type: in vivo, rat (female CFY); details: Rattus norvegicus, po, 50 mg/kg (p.o.), read-out: Percentage of the protective effect
Procedure: Proc. Soc. Exp. Med. 111, 544 (1962)]. Female CFY rats weighing 100 to 120 g each were used after starvation for 24 hours. The inflammation was induced by injecting 0.1 ml of 1% carrageenin solution into the right hind paw plant. The severity of inflammation was determined by using an Ugo-Basile type plethysmometer. The measurement was carried out before and 1.5, 3 and 4.5 hours after induction of the inflammation. The animals were orally treated with the substance to be tested 1 hour before administration of carrageenin. The effect was expressed as percentage inhibition related to the control group.

[3] = system: dextran-induced rat paw edema; experiment: Dextran-induced rat paw edema test; assay type: in vivo; details: 50 mg/kg (p.o.)
Procedure: 3) Dextran-induced rat paw edema test The method of S. Gourvaisier and R. Ducrot [Arch. Int. Pharmacodyn. Ther. 102, 33 (1955)] was employed. The method described for the carrageenin edema test was followed, except that the measurements were carried out 30, 60, 90, 120 and 180 minutes after induction of the inflammation.

Row | Compound | IC50 [1] | change in vivo at 50 mg/kg ([2]; 1.5 hours) | change in vivo at 50 mg/kg ([2]; 3 hours) | change in vivo at 50 mg/kg ([2]; 4.5 hours) | also measured
1 | CCOc1cc2c(cc1OCC)C(=C(C#N)SCC(O)CN1CCN(C)CC1)NCC2 (centres unmarked) [Example 22, 2-(6,7-diethoxy-1,2,3,4-tetrahydro-1-isoquinolinylidene)-2-[2-hydroxy-3-(4-methyl-piperazinyl)propyl]mercaptoacetonitrile hydrochloride] | 7.24 µM | – | – | – | –
2 | CCOc1cc2c(cc1OCC)C(=C(C#N)SCC(O)CNC(C)C)NCC2 (centres unmarked) [Example 7, 2-(6,7-diethoxy-1,2,3,4-tetrahydro-1-isoquinolinylidene)-2-(2-hydroxy-3-isopropylaminopropyl)mercaptoacetonitrile hydrochloride] | 17.4 µM | – | – | – | –
3 | CCOc1cc2c(cc1OCC)C(=C(C#N)SCC(O)CN1CCOCC1)NCC2.Cl (single isomer, unassigned; (+)) [Example 28, (+)-2-(6,7-diethoxy-1,2,3,4-tetrahydro-1-isoquinolinylidene)-2-[2-hydroxy-3-(4-morpholinyl)propyl]mercaptoacetonitrile hydrochloride] | – | – | – | – | Inhibition of the histamine-induced constriction of isolated tracheal smooth muscle of guinea pig pd'2 ([1]; 15 min): 6.36
4 | CCOc1cc2c(cc1OCC)C(=C(C#N)SCC(O)CNC1CCCCC1)NCC2 (centres unmarked) [Example 11, 2-(6,7-diethoxy-1,2,3,4-tetrahydro-1-isoquinolinylidene)-2-(3-cyclohexylamino-2-hydroxypropyl)mercaptoacetonitrile hydrochloride] | 35.5 µM | – | – | – | –
5 | CCOc1cc2c(cc1OCC)C(=C(C#N)SCC(O)CNC(C)(C)C)NCC2 (centres unmarked) [Example 9, 2-(6,7-diethoxy-1,2,3,4-tetrahydro-1-isoquinolinylidene)-2-(3-tert-butylamino-2-hydroxypropyl)mercaptoacetonitrile hydrochloride hemihydrate] | 41.7 µM | – | – | – | –
6 | N#CC(SCC(O)CN1CCOCC1)=C1NCCc2ccccc21 (centres unmarked) [Example 16, 2-(1,2,3,4-tetrahydro-1-isoquinolinylidene)-2-[2-hydroxy-3-(4-morpholinyl)propyl]mercaptoacetonitrile hydrochloride hemihydrate] | 32.4 µM | -29.3% | -22.2% | -20% | –
7 | CCOc1cc2c(cc1OCC)C(=C(C#N)SCC(O)CN1CCCC1)NCC2 (centres unmarked) [Example 13, 2-(6,7-diethoxy-1,2,3,4-tetrahydro-1-isoquinolinylidene)-2-[2-hydroxy-3-(1-pyrrolidinyl)propyl]mercaptoacetonitrile hydrochloride] | 12.6 µM | -31.8% | -21.8% | -9.05% | –
8 | CCOc1cc2c(cc1OCC)C(=C(C#N)SCC(O)CN1CCOCC1)NCC2 (single isomer, unassigned; (-)) [Example 27, (-)-2-(6,7-diethoxy-1,2,3,4-tetrahydro-1-isoquinolinylidene)-2-[2-hydroxy-3-(4-morpholinyl)propyl]mercaptoacetonitrile d-camphorsulfonate] | 0.537 µM | – | – | – | –
9 | COc1cc2c(cc1OC)C(=C(C#N)SCC(CN1CCOCC1)OC(C)=O)NCC2 (centres unmarked) [Example 23, 2-(6,7-dimethoxy-1,2,3,4-tetrahydro-1-isoquinolinylidene)-2-[2-acetoxy-3-(4-morpholinyl)propyl]mercaptoacetonitrile hydrochloride] | 17.4 µM | -33.8% | -30.9% | -29.5% | –

The next lines start with results.

Row | IC50 [1] | Compound | change in vivo at 50 mg/kg ([2]; 1.5 hours) | change in vivo at 50 mg/kg ([2]; 3 hours) | change in vivo at 50 mg/kg ([2]; 4.5 hours) | also measured
10 | 50.1 µM | COc1cc2c(cc1OC)C(=C(C#N)SCC(O)CN(CCO)CCO)NCC2 (centres unmarked) [Example 4, 2-(6,7-dimethoxy-1,2,3,4-tetrahydro-1-isoquinolinylidene)-2-[3-(N,N-bis-2-hydroxyethyl)-amino-2-hydroxypropyl]-mercapto-acetonitrile hydrochloride dihydrate] | -25% | -26% | -24% | –
11 | 9.12 µM | CCN(CC)CC(O)CSC(C#N)=C1NCCc2cc(OC)c(OC)cc21 (centres unmarked) [Example 1, 2-(6,7-dimethoxy-1,2,3,4-tetrahydro-1-isoquinolinylidene)-2-(3-diethylamino-2-hydroxypropyl)-mercaptoacetonitrile hydrochloride] | – | – | – | –
12 | 0.204 µM | COc1cc2c(cc1OC)C(=C(C#N)SCC(O)CNC(C)C)NCC2 (centres unmarked) [Example 6, 2-(6,7-dimethoxy-1,2,3,4-tetrahydro-1-isoquinolinylidene)-2-(2-hydroxy-3-isopropylaminopropyl)mercaptoacetonitrile hydrochloride hemihydrate] | 0% | -17% | 0% | –
13 | 45.7 µM | CCOc1cc2c(cc1OCC)C(=C(C#N)SCC(O)CN(CCO)CCO)NCC2 (centres unmarked) [Example 5, 2-(6,7-diethoxy-1,2,3,4-tetrahydro-1-isoquinolinylidene)-2-[3-(N,N-bis-2-hydroxyethyl)-amino-2-hydroxypropyl]mercapto-acetonitrile hydrochloride] | -21% | -16.5% | -10% | –
14 | 12.3 µM | CCOc1cc2c(cc1OCC)C(=C(C#N)SCC(O)CN(CC)CC)NCC2 (centres unmarked) [Example 2, 2-(6,7-diethoxy-1,2,3,4-tetrahydro-1-isoquinolinylidene)-2-(3-diethylamino-2-hydroxypropyl)-mercaptoacetonitrile hydrochloride] | -22.9% | -20.6% | -11.3% | Percentage of inhibition ([3]; 30 minutes): -24%; Percentage of inhibition ([3]; 60 minutes): -21%; Percentage of inhibition ([3]; 90 minutes): -25%; Percentage of inhibition ([3]; 120 minutes): -23%; Percentage of inhibition ([3]; 180 minutes): -17%
15 | 34.7 µM | COc1cc2c(cc1OC)C(=C(C#N)SCC(O)CN1CCCCC1)NCC2 (centres unmarked) [Example 15, 2-(6,7-dimethoxy-1,2,3,4,-tetrahydro-1-isoquinolinylidene)-2-[2-hydroxy-3-(1-piperidinyl)propil]mercaptoacetonitrile hydrochloride] | – | – | – | –
16 | 13.5 µM | COc1cc2c(cc1OC)C(=C(C#N)SCC(O)CNC(C)(C)C)NCC2 (centres unmarked) [Example 8, 2-(6,7-dimethoxy-1,2,3,4-tetrahydro-1-isoquinolinylidene)-2-(3-tert-butylamino-2-hydroxypropyl)mercaptoacetonitrile hydrochloride] | – | – | – | –
17 | 15.5 µM | COc1cc2c(cc1OC)C(=C(C#N)SCC(O)CN1CCCC1)NCC2 (centres unmarked) [Example 12, 2-(6,7-dimethoxy-1,2,3,4-tetrahydro-1-isoquinolinylidene)-2-[2-hydroxy-3-(1-pyrrolidinyl)propyl]mercaptoacetonitrile hydrochloride hemihydrate] | -27.2% | -18.9% | -17.6% | Percentage of inhibition ([3]; 30 minutes): -20.2%; Percentage of inhibition ([3]; 60 minutes): -15.6%; Percentage of inhibition ([3]; 90 minutes): -14.7%; Percentage of inhibition ([3]; 120 minutes): -14.6%; Percentage of inhibition ([3]; 180 minutes): -12.6%
18 | 105 µM | COc1cc2c(cc1OC)C(=C(C#N)SCC(O)CNC1CCCCC1)NCC2 (centres unmarked) [Example 10, 2-(6,7-dimethoxy-1,2,3,4-tetrahydro-1-isoquinolinylidene)-2-(3-cyclohexylamino-2-hydroxypropyl)mercaptoacetonitrile hydrochloride] | -14.8% | -13% | -7.2% | Percentage of inhibition ([3]; 30 minutes): -25%; Percentage of inhibition ([3]; 60 minutes): -24%; Percentage of inhibition ([3]; 90 minutes): -25%; Percentage of inhibition ([3]; 120 minutes): -27%; Percentage of inhibition ([3]; 180 minutes): -50%
19 | 26.9 µM | COc1cc2c(cc1OC)C(=C(C#N)SCC(O)CN(C)CCO)NCC2 (centres unmarked) [Example 3, 2-(6,7-dimethoxy-1,2,3,4-tetrahydro-isoquinolinylidene)-2-[3-(N-methyl-N-2-hydroxyethyl)-amino-2-hydroxypropyl]-mercapto-acetonitrile hydrochloride] | – | – | – | –
20 | 2.88 µM | COc1cc2c(cc1OC)C(=C(C#N)SCC(O)CN1CCN(C)CC1)NCC2 (centres unmarked) [Example 21, 2-(6,7-dimethoxy-1,2,3,4-tetrahydro-1-isoquinolinylidene)-2-[2-hydroxy-3-(4-methyl-1-piperazinyl)propyl]mercaptoacetonitrile hydrochloride] | – | – | – | –
